Experiments:
[1] = test system: r(G4C2)8; test: In vitro Chem-CLIP and C-Chem-CLIP; format: binding; details: constant 4 (500 nM), increasing concentrations of competitor
Experimental: In vitro Chemical Cross-linking and Isolation by Pull-Down (Chem-CLIP) and Competitive Chemical Cross-linking and Isolation by Pull-Down (C-Chem-CLIP): Approximately 10,000 counts of ^32P 5′-end labeled r(G4C2)8 was folded in 1×Folding Buffer at 95° C. for 1 min. After cooling to room temperature, the Chem-CLIP probe at the desired concentrations (5, 10, 100, 500, 1000, 5000, 10000 nM) was added, and the samples were incubated at 37° C. for 18 h. For C-Chem-CLIP studies, the parent compound (10, 100, 500, 1000, 5000, 10000 nM) was incubated with RNA for 1 h before addition of the Chem-CLIP probe (500 nM).
Cross-linked RNAs were clicked to biotin […] azide (10 μL of a 5 mM stock solution in DMSO) by incubating in a solution containing 25 mM HEPES (pH 7.1), 250 mM sodium ascorbate, 10 mM CuSO4, and 50 mM THPTA (tris-hydroxypropyltriazolylmethylamine) for 6 h at 37° C. A 300 μL of streptavidin-agarose beads (Sigma-Aldrich) was washed three times and then resuspended in 1×PBS. An aliquot (20 μL) of the slurry was added to each sample, which was incubated for 1 h at room temperature. The samples were centrifuged and the supernatant containing unbound RNA was transferred to an unused tube. The beads were then washed three times with 1×PBS supplemented with 0.10% (v/v) Tween-20 and centrifuged, with each wash supernatant being added to the tube containing unbound RNA. The amounts of radioactivity in the supernatant and associated with the beads were quantified with a Beckman Coulter LS6500 Liquid Scintillation Counter.

[2] = test system: C9orf72 intron 1; test: C9orf72 intron 1 RT-qPCR in LCLs from a healthy donor; format: cell-based, human
Experimental: Measuring Levels of C9orf72 and C9orf72 Variants by RT-qPCR. LCLs were seeded in 6-well plate (˜10^6 cells in 2 mL of growth medium) and incubated overnight at 37° C. Cells were then treated with various concentrations of compound for 24 h or with G4C2-ASO and Control-ASO (100 nM), delivered by transfection with Lipofectamine RNAiMax. RNA was extracted as described above and the expression of C9orf72 variants was determined by RT-qPCR. […] For compound treatment well, medium change was performed with fresh compound every 3-4 days. RNA was extracted as described above and the expression of C9orf72 variants was determined by RT-qPCR.

[3] = test system: transcripts containing short, non-pathogenic r(G4C2) repeats; test: Off-target RT-qPCR of genes with short r(G4C2) repeats in patient-derived LCL; format: cell-based, human; details: 500 nM
[4] = test system: Poly(GP); test: poly(GP) in c9ALS iPSC-derived spinal neurons; format: cell-based, human
Experimental: iPSCs were differentiated into spinal neuron cells using a previously the previously described direct induced motor neuron (diMNs) differentiation protocol (58) with modifications. Briefly, iPSCs were plated into Matrigel-coated 100 mm dishes (30-40% confluence). Neuroepithelial induction was performed by replacing the iPSC maintenance medium with Stage 1 medium [47.5% IMDM (Iscove's Modified Dulbecco's Medium) medium, 47.5% F12 medium, 1% NEAA (Non-Essential Amino Acid) (Life Technologies), 2% B27 (Invitrogen), 1% N2, 1% PSA (Penicillin-Streptomycin-Amphotericin), 0.2 μM LDN193189 (Stemgent), 10 μM SB431542 ([…] Technologies) and 3 μM CHIR99021 (Sigma-Aldrich)]. After daily medium changes for 6 days, cells were detached with Accutase and seeded into 6-well plates (1.5×10^6 cells/well) in 3 mL Stage 2 medium. […]
Measuring Poly(GP) Levels by Electrochemiluminescence. […] Protein concentration was measured by Pierce™ BCA Protein Assay Kit.
Levels of poly(GP) were measured using Meso Scale Discovery MSD Gold 96-well Streptavidin SECTOR plates. […] The conjugated antibodies were desalted with 40K Zeba™ Spin Desalting Columns (Thermo Fisher Scientific), and their concentrations were determined by Pierce™ BCA Protein Assay Kit. […]

Structure (SMILES)	C-Chem-CLIP, RNA pulled down by 4 [1]	C9orf72 intron 1 levels [2]	abundance of eight transcripts with short r(G4C2) repeats [3]	abundance of poly(GP) [4]
Cc1c2ccncc2c(C)c2c1[nH]c1ccc(OCCOCCOCCNCCOCCOCCOc3ccc4[nH]c5c(C)c6ccncc6c(C)c5c4c3)cc12 [Compound 3]	reduced the percentage of RNA pulled down in a dose dependent fashion			
CCOC(=O)C1=C(Nc2ccccc2)S/C(=C\c2ccc(OCCOCCOCCOCCNC(=O)CCC(=O)N(CCOCCOCCOc3ccc4[nH]c5c(C)c6ccncc6c(C)c5c4c3)CCOCCOCCOc3ccc4[nH]c5c(C)c6ccncc6c(C)c5c4c3)c(O)c2)C1=O [Compound 7]		did not affect	No decrease	significant (P<0.05) reduction

— patent US20230381170A1, “METHOD FOR TREATING ALS/FTD THROUGH DEGRADATION OF RNA REPEAT EXPANSION” (University of Florida Research Foundation, Incorporated, priority 2020, published 2023)
